Measurements reported in patent US20060154942A1, “Quinazolinone derivatives useful as anti-hyperalgesic agents” (priority 2002, published 2006).

CC(C)c1cc2nc(N)[nH]c(=O)c2cc1-c1ccc(Cl)cc1 [Example 59, 2-Amino-6-(4-chlorophenyl)-7-isopropyl-3H-quinazolin-4-one]
melting point: 326 to 330 °C
